Legend:
[1] = biological target: T1, human NK-3 receptor (Homo sapiens (Human), UniProt P29371); test: Aequorin functional assay with human NK-3 receptor (antagonist testing); format: cell-based; settings: CHO cells expressing human NK-3 receptor and apoaequorin; agonist NKA at EC80 (3 nM); read-out: hNK-3 - AEQ (antagonist IC50)
Procedure: Aequorin Assay with Human NK-3 Receptor
Changes in intracellular calcium levels are a recognized indicator of G protein-coupled receptor activity. The efficacy of compounds of the invention to inhibit NKA-mediated NK-3 receptor activation was assessed by an in vitro Aequorin functional assay. Chinese Hamster Ovary recombinant cells expressing the human NK-3 receptor and a construct that encodes the photoproteinapoaequorin were used for this assay. In the presence of the cofactor coelenterazine, apoaequorin emits a measurable luminescence that is proportional to the amount of intracellular (cytoplasmic) free calcium.
The antagonist activity of compounds of the invention is measured following pre-incubation (3 minutes) of the compound (at various concentrations) with the cells, followed by addition of the reference agonist (NKA) at a final concentration equivalent to the EC80 (3 nM) and recording of emitted light (FDSS 6000 Hamamatsu) over the subsequent 90-second period. The intensity of the emitted light is integrated using the reader software. Compound antagonist activity is measured based on the concentration-dependent inhibition of the luminescence response to the addition of Neurokinin A.
The IC50 values shown in table 2 indicate that compounds of the invention are potent NK-3 antagonist compounds.

[2] = biological target: T1, human NK-3 receptor; test: 3H-SB222200 binding competition assay with human NK-3 receptor; settings: CHO cell membranes, 5 nM 3H-SB222200; Ki by Cheng-Prusoff; read-out: hNK-3 (Ki)
Procedure: The affinity of compounds of the invention for the human NK-3 receptor was determined by measuring the ability of compounds of the invention to competitively and reversibly displace a well-characterized NK-3 radioligand in a concentration-dependent manner.
^3H-SB222200 Binding Competition Assay with Human NK-3 Receptor
The ability of compounds of the invention to inhibit the binding of the NK-3 receptor selective antagonist ^3H-SB222200 was assessed by an in vitro radioligand binding assay. Membranes were prepared from Chinese hamster ovary recombinant cells stably expressing the human NK-3 receptor. The membranes were incubated with 5 nM ^3H-SB222200 (ARC) in a HEPES 25 mM/NaCl 0.1M/CaCl2 1 mM/MgCl2 5 mM/BSA 0.5%/Saponin 10 μg/ml buffer at pH 7.4 and various concentrations of compounds of the invention. The amount of ^3H-SB222200 bound to the receptor was determined after filtration by the quantification of membrane associated radioactivity using the TopCount-NXT reader (Packard).

[3] = biological target: human NK-1 receptor (Homo sapiens (Human), UniProt P25103); test: Selectivity assay: [3H] substance P binding to human NK-1 receptor; settings: CHO cell membranes, 2 nM [3H] substance P; read-out: hNK-1 (Ki)
Procedure: (§1) Selectivity of the compounds of the invention was determined over the other human NK receptors, namely NK-1 and NK-2 receptors.
The affinity of compounds of the invention for the NK-1 receptor was evaluated in CHO recombinant cells which express the human NK-1 receptor. Membrane suspensions were prepared from these cells. The following radioligand: [^3H] substance P (PerkinElmer Cat#NET111520) was used in this assay. Binding assays were performed in a 50 mM Tris/5 mM MnCl2/150 mM NaCl/0.1% BSA at pH 7.4. Binding assays consisted of 25 μl of membrane suspension (approximately 5 μg of protein/well in a 96 well plate), 50 μl of compound or reference ligand (Substance P) at increasing concentrations (diluted in assay buffer) and 2 nM [^3H] substance P. The plate was incubated 60 min at 25° C. in a water bath and then filtered over GF/C filters (Perkin Elmer, 6005174, presoaked in 0.5% PEI for 2 h at room temperature) with a Filtration unit (Perkin Elmer). The radioactivity retained on the filters was measured by using the TopCount-NXT reader (Packard).

[4] = biological target: human NK-2 receptor (Homo sapiens (Human), UniProt P21452); test: Selectivity assay: [125I]-Neurokinin A binding to human NK-2 receptor; settings: CHO cell membranes, 0.1 nM [125I]-Neurokinin A; read-out: hNK-2 (Ki)
Procedure: as §1
The affinity of compounds of the invention for the NK-2 receptor was evaluated in CHO recombinant cells which express the human NK-2 receptor. Membrane suspensions were prepared from these cells. The following radioligand [^125I]-Neurokinin A (PerkinElmer Cat#NEX252) was used in this assay. Binding assays were performed in a 25 mM HEPES/1 mM CaCl2/5 mM MgCl2/0.5% BSA/10 μg/ml saponin, at pH 7.4. Binding assays consisted of 25 μl of membrane suspension (approximately 3.75 μg of protein/well in a 96 well plate), 50 μl of compound or reference ligand (Neurokinin A) at increasing concentrations (diluted in assay buffer) and 0.1 nM [^125I]-Neurokinin A. The plate was incubated 60 min at 25° C. in a water bath and then filtered over GF/C filters (Perkin Elmer, 6005174, presoaked in assay buffer without saponine for 2 h at room temperature) with a Filtration unit (Perkin Elmer). The radioactivity retained on the filters was measured by using the TopCount-NXT reader (Packard).

[5] = tested on: circulating LH levels; test: Castrated male rat model, circulating levels of luteinizing hormone (LH), oral dosing; format: in vivo; settings: castrated male SD rats, single oral dose less than or equal to 30 mg/kg, p<0.05
Procedure: In Vivo Assay to Assess Compound Activity in Rat (Oral Dosing) The effect of compounds of the invention to inhibit luteinizing hormone (LH) secretion is determined by the following biological studies. Castrated Male Rat Model to Assess the Effect of Compound of Invention on Circulating Levels of Luteinizing Hormone (LH) In humans and rodents, castration is well-precedented to permit heightened, persistent GnRH signaling and consequent elevation of circulating LH. Thus, a castrated rat model is used to provide a broad index for measurement of LH inhibition as a marker of test compound inhibition of the GnRH signaling pathway. Castrated adult male Sprague-Dawley (SD) rats (150-175 g,) were purchased from Janvier (St Berthevin, France). All animals were housed 2 per cage in a temperature-controlled room (22±2° C.) and 50±5% relative humidity with a 12 hour/12 hour light/dark cycles (lights off at 6 h00 pm). The animals were allowed 3 weeks of postoperative recovery prior to study. Animals were handled on a daily basis. Standard diet and tap water were provided ad libitum. Animal cage litters were changed once a week. On the study day, animals were acclimated to the procedure room for a period of one hour prior to the initiation of the experiment. […] Serum LH levels were determined using radioimmunoas say kit from RIAZEN—Rat LH, Zentech (Liège, Belgium). […]

[6] = biological target: hERG channel (Homo sapiens (Human), UniProt Q12809); test: hERG inhibition assay (manual patch-clamp, HEK 293 cells); format: cell-based; settings: 5 minutes of exposure, read-out: CardioSafety (hERG IC50)
Procedure: IKr current inhibition accounts for the vast majority of known cases of drug-induced QT-prolongation. […] Whole-cell currents (acquisition by manual patch-clamp) elicited during a voltage pulse were recorded in baseline conditions and following application of tested compounds (5 minutes of exposure). The concentrations of tested compounds (0.3 μM; 3 μM; 10 μM; 30 μM) reflect a range believed to exceed the concentrations at expected efficacy doses in preclinical models. […] The current density recorded were normalized against the baseline conditions and corrected for solvent effect and time-dependent current run-down using experimental design in test compound free conditions.

[7] = Determination of plasma protein binding (rapid equilibrium dialysis); format: in vitro ADME; settings: bound drug fraction to plasma protein; equilibrium dialysis 4 hours at 37° C.
Description: Determination of Plasma Protein Binding
The pharmacokinetic and pharmacodynamic properties of chemicals/drugs are largely a function of the reversible binding of chemicals to plasma or serum proteins. […] Consequently, the extent of the plasma protein binding (PPB) of a compound influences its action as well as its distribution and elimination.
The determination of plasma protein binding (PPB) of a compound is enabled by equilibrium dialysis, an accepted and standard method for reliable estimation of the non-bound drug fraction in plasma. RED (Rapid Equilibrium Dialysis) device insert is made of two side-by-side chambers separated by an O-ring-sealed vertical cylinder of dialysis membrane (MWCO ˜8,000). […] After 4 hours incubation at 37° C. under shaking, an aliquot is removed from each chamber and analyzed by a LC-MS/MS procedure enables the determination of both free and bound drug.
The “free fraction” may be calculated as 100%−% rPPB (i.e. the complementary percentage of that disclosed in Table 4, corresponding to the drug concentration that is unbound and therefore available to engage biological target and elicit pharmacological activity).

human NK-1 receptor, sequence (P25103 whole entry): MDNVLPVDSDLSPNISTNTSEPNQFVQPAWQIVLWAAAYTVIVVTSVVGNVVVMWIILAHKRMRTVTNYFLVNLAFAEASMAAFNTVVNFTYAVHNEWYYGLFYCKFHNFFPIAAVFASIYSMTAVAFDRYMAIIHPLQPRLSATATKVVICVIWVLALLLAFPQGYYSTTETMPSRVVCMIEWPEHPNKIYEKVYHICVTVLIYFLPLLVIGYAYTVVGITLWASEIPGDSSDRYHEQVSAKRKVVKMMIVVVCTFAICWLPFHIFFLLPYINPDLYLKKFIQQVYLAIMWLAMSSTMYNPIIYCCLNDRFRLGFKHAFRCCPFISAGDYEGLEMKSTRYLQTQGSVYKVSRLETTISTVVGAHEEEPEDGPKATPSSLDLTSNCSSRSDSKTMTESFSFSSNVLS
T1 sequence (P29371 whole entry): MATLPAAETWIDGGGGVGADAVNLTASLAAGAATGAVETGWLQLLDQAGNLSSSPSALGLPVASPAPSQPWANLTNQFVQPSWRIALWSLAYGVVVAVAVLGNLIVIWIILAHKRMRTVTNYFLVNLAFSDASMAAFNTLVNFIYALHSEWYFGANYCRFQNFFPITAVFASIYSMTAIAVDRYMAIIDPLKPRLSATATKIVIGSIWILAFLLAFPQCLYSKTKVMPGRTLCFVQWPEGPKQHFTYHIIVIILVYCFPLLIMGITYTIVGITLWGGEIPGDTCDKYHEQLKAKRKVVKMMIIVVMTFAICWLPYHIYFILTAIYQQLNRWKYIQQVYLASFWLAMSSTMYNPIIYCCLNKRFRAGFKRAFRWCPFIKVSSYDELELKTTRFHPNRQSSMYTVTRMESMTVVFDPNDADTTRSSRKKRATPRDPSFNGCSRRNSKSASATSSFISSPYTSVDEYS
human NK-2 receptor, sequence (P21452 whole entry): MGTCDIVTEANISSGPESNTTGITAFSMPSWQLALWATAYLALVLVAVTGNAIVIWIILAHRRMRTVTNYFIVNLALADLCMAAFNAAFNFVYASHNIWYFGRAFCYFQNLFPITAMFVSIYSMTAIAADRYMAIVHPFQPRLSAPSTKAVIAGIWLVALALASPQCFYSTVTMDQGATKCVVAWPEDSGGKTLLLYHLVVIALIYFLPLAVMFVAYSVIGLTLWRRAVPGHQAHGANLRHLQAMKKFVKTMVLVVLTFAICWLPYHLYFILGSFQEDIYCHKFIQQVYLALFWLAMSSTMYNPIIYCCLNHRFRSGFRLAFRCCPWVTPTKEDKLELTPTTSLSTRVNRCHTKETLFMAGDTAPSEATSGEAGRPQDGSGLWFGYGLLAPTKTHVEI
hERG channel, sequence (Q12809 whole entry): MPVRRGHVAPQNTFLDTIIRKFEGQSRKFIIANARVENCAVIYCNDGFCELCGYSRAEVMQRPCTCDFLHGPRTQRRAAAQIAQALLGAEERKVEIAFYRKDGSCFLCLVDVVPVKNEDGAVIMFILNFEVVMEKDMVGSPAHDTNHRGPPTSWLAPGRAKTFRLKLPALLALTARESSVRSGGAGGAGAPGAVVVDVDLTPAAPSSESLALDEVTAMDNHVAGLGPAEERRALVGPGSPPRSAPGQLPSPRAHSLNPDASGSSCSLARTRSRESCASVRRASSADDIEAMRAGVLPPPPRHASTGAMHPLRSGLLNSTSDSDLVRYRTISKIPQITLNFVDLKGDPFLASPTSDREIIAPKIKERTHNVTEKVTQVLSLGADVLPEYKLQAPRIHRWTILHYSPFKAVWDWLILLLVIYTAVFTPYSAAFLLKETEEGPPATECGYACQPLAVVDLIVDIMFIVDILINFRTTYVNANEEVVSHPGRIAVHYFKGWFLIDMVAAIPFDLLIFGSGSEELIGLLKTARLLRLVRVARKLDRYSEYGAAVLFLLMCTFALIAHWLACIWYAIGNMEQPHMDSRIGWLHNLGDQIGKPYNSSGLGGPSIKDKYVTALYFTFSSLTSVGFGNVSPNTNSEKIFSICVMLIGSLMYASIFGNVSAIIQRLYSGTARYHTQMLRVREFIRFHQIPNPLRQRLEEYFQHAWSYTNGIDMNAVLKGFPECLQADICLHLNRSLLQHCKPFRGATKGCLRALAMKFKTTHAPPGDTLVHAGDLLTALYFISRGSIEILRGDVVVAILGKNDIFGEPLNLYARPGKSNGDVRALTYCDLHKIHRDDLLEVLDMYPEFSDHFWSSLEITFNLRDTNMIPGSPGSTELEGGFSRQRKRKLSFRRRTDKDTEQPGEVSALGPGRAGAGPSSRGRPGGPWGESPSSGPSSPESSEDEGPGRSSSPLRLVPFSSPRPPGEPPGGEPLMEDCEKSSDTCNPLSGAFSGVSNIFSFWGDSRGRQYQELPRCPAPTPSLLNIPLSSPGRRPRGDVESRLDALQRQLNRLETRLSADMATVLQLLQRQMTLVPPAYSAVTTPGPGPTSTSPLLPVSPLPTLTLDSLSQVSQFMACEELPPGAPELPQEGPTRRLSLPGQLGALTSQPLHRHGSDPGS

## Cc1nsc(-c2nnc3n2CCN(C(=O)c2ccc(F)cc2)C3)n1 [Compound 1, (4-fluorophenyl)(3-(3-methyl-1,2,4-thiadiazol-5-yl)-5,6-dihydro-[1,2,4]triazolo[4,3-a]pyrazin-7(8H)-yl)methanone]
[1]
  IC50: 180 nM
[2]
  Ki: 140 nM
[3]
  Ki: > 30000 nM
[4]
  Ki: > 30000 nM
[5]
  suppression of circulating LH levels: significantly suppressed circulating LH levels

## Cc1nsc(-c2nnc3n2CCN(C(=O)c2ccc(Cl)cc2)C3)n1 [Compound 2, (4-chlorophenyl)(3-(3-methyl-1,2,4-thiadiazol-5-yl)-5,6-dihydro-[1,2,4]triazol[4,3-a]pyrazin-7(8H)-yl)methanone]
[1]
  IC50: 140 nM
[2]
  Ki: 99 nM
[3]
  Ki: > 30000 nM
[4]
  Ki: > 30000 nM
[6]
  IC50: 35000 nM
[7]
  Exposure (% rPPB): 49%

## Cc1nsc(-c2nnc3n2CCN(C(=O)c2ccc(Cl)c(F)c2)C3)n1 [Compound 3, (4-chloro-3-fluorophenyl)(3-(3-methyl-1,2,4-thiadiazol-5-yl)-5,6-dihydro-[1,2,4]triazol[4,3-a]pyrazin-7(8H)-yl)methanone]
[1]
  IC50: 140 nM
[2]
  Ki: 93 nM
[3]
  Ki: > 30000 nM
[4]
  Ki: > 30000 nM
[7]
  Exposure (% rPPB): 54%

## Cc1nsc(-c2nnc3n2CCN(C(=O)c2ccc(F)c(Cl)c2)C3)n1 [Compound 4, (3-chloro-4-fluorophenyl)(3-(3-methyl-1,2,4-thiadiazol-5-yl)-5,6-dihydro-[1,2,4]triazol[4,3-a]pyrazin-7(8H)-yl)methanone]
[1]
  IC50: 200 nM
[2]
  Ki: 130 nM
[3]
  Ki: > 30000 nM
[4]
  Ki: > 30000 nM
[7]
  Exposure (% rPPB): 52%

## Cc1nsc(-c2nnc3n2CCN(C(=O)c2ccc(F)c(F)c2)C3)n1 [Compound 5, (3,4-difluorophenyl)(3-(3-methyl-1,2,4-thiadiazol-5-yl)-5,6-dihydro-[1,2,4]triazol[4,3-a]pyrazin-7(8H)-yl)methanone]
[1]
  IC50: 250 nM
[2]
  Ki: 170 nM
[3]
  Ki: > 30000 nM
[4]
  Ki: > 30000 nM
[7]
  Exposure (% rPPB): 28%

## Cc1nsc(-c2nnc3n2CCN(C(=O)c2cc(F)c(F)c(F)c2)C3)n1 [Compound 6, (3-(3-methyl-1,2,4-thiadiazol-5-yl)-5,6-dihydro-[1,2,4]triazolo[4,3-a]pyrazin-7(8H)-yl)(3,4,5-trifluorophenyl)methanone]
[1]
  IC50: 330 nM
[2]
  Ki: 170 nM
[3]
  Ki: > 30000 nM
[4]
  Ki: > 30000 nM
[7]
  Exposure (% rPPB): 27%

## Cc1nsc(-c2nnc3n2CCN(C(=O)c2ccc(F)c(F)c2F)C3)n1 [Compound 7, (3-(3-methyl-1,2,4-thiadiazol-5-yl)-5,6-dihydro-[1,2,4]triazolo[4,3-a]pyrazin-7(8H)-yl)(2,3,4-trifluorophenyl)methanone]
[1]
  IC50: 470 nM
[2]
  Ki: 240 nM
[3]
  Ki: > 30000 nM
[4]
  Ki: > 30000 nM
[7]
  Exposure (% rPPB): 25%
